What follows are compounds tested on Utrophin A promoter linked to a luciferase reporter gene (assay: Luciferase reporter assay (murine H2K cells)). Conditions: Mus musculus, H2K mdx, luciferase level relative to control; H2K/mdx/Utro A reporter cells; compound 10 μM final concentration; read-out: Activity.
Assay type: cell-based
Description: 1. Luciferase Reporter Assay (Murine H2K Cells)
The cell line used for the screen is an immortalized mdx mouse H2K cell line that has been stably transfected with a plasmid containing […] fragment of the Utrophin A promoter including the first untranslated exon linked to a luciferase reporter gene. Under conditions of low temperature and interferon containing media, the cells remain as myoblasts. These are plated into 96 well plates and cultured in the presence of compound for three days. The level of luciferase is then determined by cell lysis and reading of the light output from the expressed luciferase gene utilising a plate luminometer.
H2K/mdx/Utro A reporter Cell Line Maintenance
The cells were grown at 33° C. in the presence of 10% CO2. To remove the myoblasts for platting, they were incubated with Trypsin EDTA until the monolayer started to detach.
The plates were then incubated at 33° C. in the presence of 10% CO2 for 24 hrs. Compounds were dosed by adding 10 μl of diluted compound to each well giving a final concentration of 10 μM. The plates were then incubated for a further 48 hrs. Cells were then lysed in situ following the manufacture's protocols (Promega Steady-Glo Luciferase Assay System (E2520). Then counted for 10 seconds using a plate luminometer (Victor1420).
Compounds for screening were stored at −20° C. as 10 mM stocks in 100% DMSO until required.
Biological activity as assessed using the luciferase reporter assay in murine H2K cells, and is classified as follows: […]

Question: `O=C(Nc1ccc2oc(-c3ccc(Cl)cc3)nc2c1)c1ccncc1` [Example 87, N-(2-(4-chlorophenyl)benzo[d]oxazol-5-yl)isonicotinamide] was tested. Which activity at 10 µM did it give?
Answer: Its activity at 10 µM is less than 200%.

Question: Which activity at 10 µM does the source give for `O=C(Nc1ccc2oc(-c3ccc(Cl)cc3)nc2c1)c1ccccc1` [Example 88, N-(2-(4-chlorophenyl)benzo[d]oxazol-5-yl)benzamide] here?
Answer: Its activity at 10 µM is less than 200%.

Question: With `O=C(Nc1ccc2oc(-c3ccc(Cl)cc3)nc2c1)c1ccc(Cl)cc1` [Example 89, 4-chloro-N-(2-(4-chlorophenyl)benzo[d]oxazol-5-yl)benzamide] as the compound, how does the activity at 10 µM read?
Answer: The activity at 10 µM was less than 200%.

Question: Which activity at 10 µM does the source give for `Cc1ccc(C(=O)Nc2ccc3oc(-c4ccc(Cl)cc4)nc3c2)cc1` [Example 90, N-(2-(4-chlorophenyl)benzo[d]oxazol-5-yl)-4-methylbenzamide] here?
Answer: The activity at 10 µM was less than 200%.

Question: How did the activity at 10 µM turn out when `COc1ccc(C(=O)Nc2ccc3oc(-c4ccc(Cl)cc4)nc3c2)cc1` [Example 91, N-(2-(4-chlorophenyl)benzo[d]oxazol-5-yl)-4-methoxybenzamide] was run?
Answer: The activity at 10 µM was less than 200%.

Question: Which activity at 10 µM does the source give for `COc1ccccc1C(=O)Nc1ccc2oc(-c3ccc(Cl)cc3)nc2c1` [Example 92, N-(2-(4-chlorophenyl)benzo[d]oxazol-5-yl)-2-methoxybenzamide] here?
Answer: Its activity at 10 µM is less than 200%.

Question: `CN(C)c1ccc(C(=O)Nc2ccc3oc(-c4ccc(Cl)cc4)nc3c2)cc1` [Example 93, N-(2-(4-chlorophenyl)benzo[d]oxazol-5-yl)-4-(dimethylamino)benzamide] was tested. Which activity at 10 µM did it give?
Answer: Its activity at 10 µM is less than 200%.

Question: For `O=C(Nc1ccc2oc(-c3ccc(Cl)cc3)nc2c1)c1ccc(C(F)(F)F)cc1` [Example 94, N-(2-(4-chlorophenyl)benzo[d]oxazol-5-yl)-4-(trifluoromethyl)benzamide], which activity at 10 µM is on record?
Answer: The activity at 10 µM was less than 200%.

Question: `O=C(Nc1ccc2oc(-c3ccc(Cl)cc3)nc2c1)c1cc(Cl)cc(Cl)c1` [Example 95, 3,5-dichloro-N-(2-(4-chlorophenyl)benzo[d]oxazol-5-yl)benzamide] was tested. Which activity at 10 µM did it give?
Answer: Its activity at 10 µM is less than 200%.

Question: How did the activity at 10 µM turn out when `O=C(Nc1ccc2oc(-c3ccc(Cl)cc3)nc2c1)c1ccc(F)cc1` [Example 96, N-(2-(4-chlorophenyl)benzo[d]oxazol-5-yl)-4-fluorobenzamide] was run?
Answer: The activity at 10 µM was less than 200%.

Question: `O=C(Cc1ccccc1)Nc1ccc2oc(-c3ccc(Cl)cc3)nc2c1` [Example 97, N-(2-(4-chlorophenyl)benzo[d]oxazol-5-yl)-2-phenylacetamide] was tested. Which activity at 10 µM did it give?
Answer: Its activity at 10 µM is 201 to 300%.

Question: `O=C(CCc1ccccc1)Nc1ccc2oc(-c3ccc(Cl)cc3)nc2c1` [Example 98, N-(2-(4-chlorophenyl)benzo[d]oxazol-5-yl)-3-phenylpropanamide] was tested. Which activity at 10 µM did it give?
Answer: Its activity at 10 µM is less than 200%.

Question: For `CCCC(=O)Nc1ccc2oc(-c3ccc(Cl)cc3)nc2c1` [Example 99, N-(2-(4-chlorophenyl)benzo[d]oxazol-5-yl)butyramide], which activity at 10 µM is on record?
Answer: The activity at 10 µM was greater than 401%.

Question: For `CCCCC(=O)Nc1ccc2oc(-c3ccc(Cl)cc3)nc2c1` [Example 100, N-(2-(4-chlorophenyl)benzo[d]oxazol-5-yl)pentanamide], which activity at 10 µM is on record?
Answer: Its activity at 10 µM is 201 to 300%.

Question: With `CC(C)C(=O)Nc1ccc2oc(-c3ccc(Cl)cc3)nc2c1` [Example 101, N-(2-(4-chlorophenyl)benzo[d]oxazol-5-yl)isobutyramide] as the compound, how does the activity at 10 µM read?
Answer: The activity at 10 µM was greater than 401%.

Question: `O=C(Nc1ccc2oc(-c3ccc(Cl)cc3)nc2c1)c1ccco1` [Example 102, N-(2-(4-chlorophenyl)benzo[d]oxazol-5-yl)furan-2-carboxamide] was tested. Which activity at 10 µM did it give?
Answer: Its activity at 10 µM is less than 200%.

Question: With `O=C(Nc1ccc2oc(-c3ccc(Cl)cc3)nc2c1)c1cccs1` [Example 103, N-(2-(4-chlorophenyl)benzo[d]oxazol-5-yl)thiophene-2-carboxamide] as the compound, how does the activity at 10 µM read?
Answer: Its activity at 10 µM is less than 200%.

Question: `Cc1cc2nc(-c3ccc(N)cc3O)[nH]c2cc1C` [Example 104, 5-amino-2-(5,6-dimethyl-1H-benzo[d]imidazol-2-yl)phenol] was tested. Which activity at 10 µM did it give?
Answer: The activity at 10 µM was 201 to 300%.

Question: `Cc1cc(-c2nc3ccccc3[nH]2)ccc1[N+](=O)[O-]` [Example 105, 2-(3-methyl-4-nitrophenyl)-1H-benzo[d]imidazole] was tested. Which activity at 10 µM did it give?
Answer: The activity at 10 µM was greater than 401%.

Question: With `O=[N+]([O-])c1ccc2nc(-c3ccccc3O)[nH]c2c1` [Example 106, 2-(6-nitro-1H-benzo[d]imidazol-2-yl)phenol] as the compound, how does the activity at 10 µM read?
Answer: Its activity at 10 µM is less than 200%.

Question: For `O=C(O)c1ccc2oc(-c3ccccc3)nc2c1` [Example 107, 2-phenylbenzo[d]oxazole-5-carboxylic acid], which activity at 10 µM is on record?
Answer: Its activity at 10 µM is 301 to 400%.

Question: With `CCCc1ccc(-c2nc3cc(C(=O)O)ccc3o2)cc1` [Example 108, 2-(4-propylphenyl)benzo[d]oxazole-5-carboxylic acid] as the compound, how does the activity at 10 µM read?
Answer: The activity at 10 µM was less than 200%.

Question: For `CCCc1ccc(-c2nc3ccc(C(=O)O)cc3o2)cc1` [Example 109, 2-(4-propylphenyl)benzo[d]oxazole-6-carboxylic acid], which activity at 10 µM is on record?
Answer: The activity at 10 µM was less than 200%.

Question: Which activity at 10 µM does the source give for `CCCc1ccc(-c2nc3ccc(-c4nc5ccc(C(=O)O)cc5o4)cc3o2)cc1` [Example 110, 2′-(4-propylphenyl)-2,6′-bibenzo[d]oxazole-6-carboxylic acid] here?
Answer: The activity at 10 µM was less than 200%.

Question: How did the activity at 10 µM turn out when `Clc1ccc2oc(-c3ccccc3)nc2c1` [Example 111, 5-chloro-2-phenylbenzo[d]oxazole] was run?
Answer: The activity at 10 µM was 201 to 300%.

Question: With `Clc1ccc2nc(-c3ccccc3)oc2c1` [Example 112, 6-chloro-2-phenylbenzo[d]oxazole] as the compound, how does the activity at 10 µM read?
Answer: Its activity at 10 µM is less than 200%.

Question: `Cc1ccc(-c2nc3cc(NC(=O)c4cccnc4)ccc3o2)cc1` [Example 113, N-(2-p-tolylbenzo[d]oxazol-5-yl)nicotinamide] was tested. Which activity at 10 µM did it give?
Answer: The activity at 10 µM was less than 200%.

Question: For `Cc1ccc(-c2nc3cc(NC(=O)c4ccncc4)ccc3o2)cc1` [Example 114, N-(2-p-tolylbenzo[d]oxazol-5-yl)isonicotinamide], which activity at 10 µM is on record?
Answer: The activity at 10 µM was less than 200%.

Question: `CCC(=O)Nc1ccc2oc(-c3ccc(C)cc3)nc2c1` [Example 115, N-(2-p-tolylbenzo[d]oxazol-5-yl)propionamide] was tested. Which activity at 10 µM did it give?
Answer: The activity at 10 µM was greater than 401%.

Question: For `CCCC(=O)Nc1ccc2oc(-c3ccc(C)cc3)nc2c1` [Example 116, N-(2-p-tolylbenzo[d]oxazol-5-yl)butyramide], which activity at 10 µM is on record?
Answer: The activity at 10 µM was greater than 401%.

Question: How did the activity at 10 µM turn out when `CCCCC(=O)Nc1ccc2oc(-c3ccc(C)cc3)nc2c1` [Example 117, N-(2-p-tolylbenzo[d]oxazol-5-yl)pentanamide] was run?
Answer: Its activity at 10 µM is 301 to 400%.

Question: With `Cc1ccc(-c2nc3cc(NC(=O)C(C)C)ccc3o2)cc1` [Example 118, N-(2-p-tolylbenzo[d]oxazol-5-yl)isobutyramide] as the compound, how does the activity at 10 µM read?
Answer: Its activity at 10 µM is 201 to 300%.

Question: Which activity at 10 µM does the source give for `Cc1ccc(-c2nc3cc(NC(=O)c4ccco4)ccc3o2)cc1` [Example 119, N-(2-p-tolylbenzo[d]oxazol-5-yl)furan-2-carboxamide] here?
Answer: The activity at 10 µM was less than 200%.

Question: With `Cc1ccc(-c2nc3cc(NC(=O)c4cccs4)ccc3o2)cc1` [Example 120, N-(2-p-tolylbenzo[d]oxazol-5-yl)thiophene-2-carboxamide] as the compound, how does the activity at 10 µM read?
Answer: The activity at 10 µM was 201 to 300%.

Question: For `O=C(Nc1ccc2oc(-c3ccc(C(F)(F)F)cc3)nc2c1)c1cccnc1` [Example 121, N-(2-(4-(trifluoromethyl)phenyl)benzo[d]oxazol-5-yl)nicotinamide], which activity at 10 µM is on record?
Answer: The activity at 10 µM was less than 200%.

Question: With `O=C(Nc1ccc2oc(-c3ccc(C(F)(F)F)cc3)nc2c1)c1ccncc1` [Example 122, N-(2-(4-(trifluoromethyl)phenyl)benzo[d]oxazol-5-yl)isonicotinamide] as the compound, how does the activity at 10 µM read?
Answer: The activity at 10 µM was less than 200%.

Question: For `CC(=O)Nc1ccc2oc(-c3ccc(C(F)(F)F)cc3)nc2c1` [Example 123, N-(2-(4-(trifluoromethyl)phenyl)benzo[d]oxazol-5-yl)acetamide], which activity at 10 µM is on record?
Answer: Its activity at 10 µM is 201 to 300%.

Question: With `CCC(=O)Nc1ccc2oc(-c3ccc(C(F)(F)F)cc3)nc2c1` [Example 124, N-(2-(4-(trifluoromethyl)phenyl)benzo[d]oxazol-5-yl)propionamide] as the compound, how does the activity at 10 µM read?
Answer: Its activity at 10 µM is less than 200%.

Source: US8501713B2, “Drug combinations for the treatment of duchenne muscular dystrophy” (Summit Corporation PLC, priority 2007, dated 2013)
